Laboratory results reported in PubChem BioAssay (NCI).
Values joined by “and” are separate entries in the source; they are usually repeats but may differ in a detail not shown here. Equal values may be shown once.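 Test compounds were applied to cells in 96-well plates for 48 hours at 5 doses. GI50 marks 50% less growth. TGI: concentration producing complete growth inhibition.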

What was measured:
Assay in all cases: DTP human tumour cell line panel, 48 h
MOLT-4 leukemia = tested on: MOLT-4 leukemia
786-0 renal = tested on: 786-0 renal
LOX IMVI melanoma = tested on: LOX IMVI melanoma
SF-539 CNS = tested on: SF-539 CNS
KM12 colon = tested on: KM12 colon
HOP-92 NSCLC = tested on: HOP-92 NSCLC
HT29 colon = tested on: HT29 colon
SK-OV-3 ovarian = tested on: SK-OV-3 ovarian
HS 578T breast = tested on: HS 578T breast
PC-3 prostate = tested on: PC-3 prostate

Row | Structure (SMILES) | TGI (MOLT-4 leukemia) [µM] | TGI (786-0 renal) [µM] | TGI (LOX IMVI melanoma) | TGI (SF-539 CNS) | TGI (KM12 colon) [µM] | TGI (HOP-92 NSCLC) | TGI (HT29 colon) [µM] | TGI (SK-OV-3 ovarian) | TGI (HS 578T breast) [µM] | GI50 (MOLT-4 leukemia) [µM] | GI50 (SF-539 CNS) [µM] | GI50 (KM12 colon) | GI50 (HOP-92 NSCLC) [µM] | GI50 (SK-OV-3 ovarian) | GI50 (HS 578T breast) [µM] | GI50 (786-0 renal) [µM] | GI50 (LOX IMVI melanoma) [µM] | GI50 (PC-3 prostate) [µM] | TGI (PC-3 prostate) [µM] | GI50 (HT29 colon) [µM]
1 | COC(=O)C#CCC1CCCC1C1SCCS1 (stereo not drawn) | 75.6 | > 100 | > 100 µM | > 100 µM | > 100 | > 100 µM | > 100 | > 100 µM | – | – | – | – | – | – | – | – | – | – | – | –
2 | O=C(COc1ccc(Cl)cc1)N1CCN(C(=O)COc2ccc(Cl)cc2)c2ccccc21 | > 100 | > 100 | > 100 µM | > 100 µM | > 100 | > 100 µM | > 100 | > 100 µM | – | – | – | – | – | – | – | – | – | – | – | –
3 | COc1cccc2c1[C@H]1CO[C@H]3C4C[C@H](C(=O)O)C([C@@H](C2)N13)N4C (stereo partly drawn) | – | 4.67 | 3.29 µM and > 23.9 µM | 2.62 µM and 2.04 µM | 1.64 | 4.55 µM and 3.22 µM | – | 7.84 µM and 1.75 µM | 0.656 | 0.45 | 0.684 | 5.21 µM and 0.685 µM | 0.684 | 6.06 µM and 0.803 µM | – | – | – | – | – | –
4 | O=C(NCC(=O)N1CCOC1=O)OCc1ccccc1 | > 100 | > 100 | > 100 µM | > 100 µM | > 100 | > 100 µM | > 100 | > 100 µM | – | – | – | – | – | – | – | – | – | – | – | –
5 | COc1ccc2c(c1)C(=O)c1c-2c(N2CCNCC2)nc2ccccc12 | 3.03 | 13.3 | 3.5 µM | 12.7 µM | 4.84 | – | 3.34 | 19.2 µM | 20.9 | 0.688 | 3.8 | 2.01 µM | – | 6 µM | 5.15 | 3.17 | 1.79 | 0.267 | 8.67 | 1.49
6 | CCCCCCCCCCCCCP(=O)(NCC(N)=O)OCC (stereo not drawn) | – | 29 | – | 31.3 µM | 34 | 31.1 µM | 31.7 | 41.8 µM | – | – | – | – | – | – | – | – | – | – | – | –
7 | O=C(O)[C@@H](NS(=O)(=O)c1ccc2ccccc2c1)c1ccccc1 | > 100 | > 100 | > 100 µM | > 100 µM | – | > 100 µM | > 100 | > 100 µM | – | – | – | – | – | – | – | – | – | – | – | –
8 | O=C(CCc1nc(=S)[nH][nH]1)Nc1cccc(C(F)(F)F)c1 | > 100 | > 100 | > 100 µM | > 100 µM | > 100 | > 100 µM | > 100 | > 100 µM | – | – | – | – | – | – | – | – | – | – | – | –
9 | N.N.N.N.N.O=S(=O)([O-])C(F)(F)F.O=S(=O)([O-])C(F)(F)F.[Os+8] | 14.7 | 16.4 | 20 µM | 16.2 µM | 35 | 35.8 µM | 55.3 | 60.2 µM | – | 0.876 | 4.26 | 13.7 µM | 14.8 | 20.6 µM | – | 4.2 | 4.74 | – | – | 15.4
10 | O=C(O)COc1ccc(C(=O)/C(SS/C(C(=O)c2ccc(OCC(=O)O)c(Cl)c2Cl)=C2\C=C(c3ccc(Br)cc3)SS2)=C2/C=C(c3ccc(Br)cc3)SS2)c(Cl)c1Cl | 15 | > 45.3 | 13.7 µM | 26.2 µM | 28.4 | 16 µM | > 100 | > 89.5 µM | 17.4 | – | – | – | – | – | – | – | – | – | – | –
11 | CC(=O)NNc1nc(C)c(C(=O)/C=C/c2ccc(/C=C/C(=O)c3sc(NNC(C)=O)nc3C)cc2)s1 | > 100 | > 100 | > 100 µM | > 100 µM | > 100 | – | > 100 | > 100 µM | – | – | – | – | – | – | – | – | – | – | – | –
12 | COC1(C)C(=O)N2C1N(C(=O)OCc1ccccc1)CC2(C)C (stereo not drawn) | > 100 | > 100 | > 100 µM | > 100 µM | – | – | > 100 | – | – | – | – | – | – | – | – | – | – | – | – | –
13 | Cc1cc(C)nc(NS(=O)(=O)c2ccc(NC(=O)c3cccn4c(=O)c5ccccc5nc34)cc2)n1 | > 100 | > 100 | 91.8 µM | > 100 µM | > 100 | – | > 100 | – | – | – | – | – | – | – | – | – | – | – | – | –
14 | CN1CCc2c1nc(-c1cccnc1)c1c2N(C)CC1 | > 100 | > 100 | > 100 µM | > 100 µM | > 100 | > 100 µM | > 100 | > 100 µM | – | – | – | – | – | – | – | – | – | – | – | –
15 | O=c1c(-c2ccccc2)coc2cc(OC/C(=N/O)c3ccc(F)cc3)ccc12 | > 100 | 41.8 | > 100 µM | 29.6 µM | 33.1 | 44.9 µM | > 100 | 35.8 µM | – | 24 | 15.2 | 14.5 µM | 18.8 | 15.4 µM | – | 19.3 | 44.1 | 19 | 45.9 | 27.8
16 | CCN(CC)CCCC(C)Nc1c(Sc2cnc3cc(Cl)ccc3c2NC(C)CCCN(CC)CC)cnc2cc(Cl)ccc12 (stereo not drawn) | 4.57 | 3.01 | 3.36 µM | – | 3.79 | 4.07 µM | 3.65 | 3.08 µM | – | – | – | – | – | – | – | – | – | – | – | –
17 | COCCOCOC(C)(C)[C@H](CCOC(C)=O)O[Si](c1ccccc1)(c1ccccc1)C(C)(C)C | 19.1 | 58.9 | 27.6 µM | – | > 100 | 27.9 µM | 28.5 | > 100 µM | – | – | – | – | – | – | – | – | – | – | – | –
